Measured values taken from patent publication US20050009837A1, “Modulators of lipid metabolism and methods of use” (City of Hope, priority 2003, published 2005).

Experiments:
[1] = target: T1, LXRα - coactivator SRC-1 interaction (Homo sapiens, UniProt Q13133); assay: Mammalian two-hybrid assay Gal-SRC-1 / VP-LXRα LBD / RXR LBD in CV-1 cells; type: cell-based
T1 construct: expression plasmids for Gal-SRC-1, VP-LXRα LBD or VP-LXRβ LBD, the RXR LBD; expressed in transfected cells; host or cells: CV-1 cells
Description: (§1) One characteristic of nuclear receptor antagonists is their ability to displace coactivators bound to ligand-activated receptors. Thus, if Clotrimazole is an antagonist of LXR, it should inhibit the recruitment of coactivators. To test this, a mammalian two-hybrid assay was used. In this assay, CV-1 cells were transfected with Gal-SRC-1, VP-LXRα or VP-LXRβ, the RXR LBD and a reporter construct. In this type of assay, therefore, only a protein-protein interaction between the coactivator SRC-1 and LXR can result in transcriptional activity. The mammalian two-hybrid assay of FIG. 6 was performed by transfecting CV-1 cells with expression plasmids for Gal-SRC-1, VP-LXRα LBD or VP-LXRβ LBD, the RXR LBD and the USAGx4 Tkluc reporter. Cells were treated for 40 hours with Clotrimazole before luciferase and β-galactosidase activities were measured. Gal-SRC in FIG. 6 refers to a fusion between the Gal4 DNA binding domain and the three receptor interaction domains of SRC-1.

[2] = target: T2, LXRβ - coactivator SRC-1 interaction (Homo sapiens, UniProt P55055); assay: Mammalian two-hybrid assay Gal-SRC-1 / VP-LXRβ LBD / RXR LBD in CV-1 cells; type: cell-based; conditions: 40 hours
T2 construct: expression plasmids for Gal-SRC-1, VP-LXRα LBD or VP-LXRβ LBD, the RXR LBD; expressed in transfected cells; host or cells: CV-1 cells
Description: as §1

human CAR = human CAR (Homo sapiens, UniProt Q14994); conditions: cited from earlier work
Sequence of human CAR (Q14994 whole entry): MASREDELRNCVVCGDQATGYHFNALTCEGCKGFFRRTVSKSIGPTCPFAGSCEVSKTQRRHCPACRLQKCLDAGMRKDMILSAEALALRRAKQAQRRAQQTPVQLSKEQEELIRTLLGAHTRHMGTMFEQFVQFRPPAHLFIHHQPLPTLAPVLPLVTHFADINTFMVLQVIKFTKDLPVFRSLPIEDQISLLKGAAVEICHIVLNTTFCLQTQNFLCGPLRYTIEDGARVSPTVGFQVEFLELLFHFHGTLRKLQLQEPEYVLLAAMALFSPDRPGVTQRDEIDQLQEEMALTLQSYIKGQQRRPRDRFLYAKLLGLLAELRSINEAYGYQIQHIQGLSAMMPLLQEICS

T1 sequence (Q13133 209-447 limits assumed): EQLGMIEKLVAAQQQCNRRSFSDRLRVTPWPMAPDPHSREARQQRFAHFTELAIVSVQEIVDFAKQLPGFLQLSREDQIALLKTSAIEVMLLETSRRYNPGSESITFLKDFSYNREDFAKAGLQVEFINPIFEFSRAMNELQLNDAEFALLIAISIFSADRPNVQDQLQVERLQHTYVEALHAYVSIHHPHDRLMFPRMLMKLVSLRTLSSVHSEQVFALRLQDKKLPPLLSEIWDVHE
T1 sequence (P19793 227-458 partner limits assumed): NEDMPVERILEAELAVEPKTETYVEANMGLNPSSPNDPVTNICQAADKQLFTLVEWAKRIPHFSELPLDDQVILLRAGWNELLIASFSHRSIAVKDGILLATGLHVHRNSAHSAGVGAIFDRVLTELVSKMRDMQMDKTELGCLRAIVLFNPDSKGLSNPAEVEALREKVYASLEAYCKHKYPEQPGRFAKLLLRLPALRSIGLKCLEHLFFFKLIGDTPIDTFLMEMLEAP
T2 sequence (P55055 222-460 limits assumed): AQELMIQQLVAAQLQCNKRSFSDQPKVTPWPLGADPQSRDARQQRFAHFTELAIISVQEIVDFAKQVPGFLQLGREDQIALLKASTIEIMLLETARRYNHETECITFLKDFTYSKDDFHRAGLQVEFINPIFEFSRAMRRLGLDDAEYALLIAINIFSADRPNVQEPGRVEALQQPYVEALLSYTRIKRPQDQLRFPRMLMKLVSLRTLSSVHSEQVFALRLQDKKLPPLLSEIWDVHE
T2 sequence (P19793 227-458 partner limits assumed): as the sequence (P19793 227-458 partner limits assumed) above

Clc1ccccc1C(c1ccccc1)(c1ccccc1)n1ccnc1 [Clotrimazole]
interaction of LXRα with coactivator SRC-1 ([1]; 40 hours, two-hybrid): inhibited this interaction | basal transcription ([1]; two-hybrid specificity control): did not inhibit basal transcription | interaction of LXRβ with coactivator SRC-1 [2]: inhibited this interaction | activity on human CAR (human CAR): antagonizes
